Values quoted from earlier work in patent publication US6426091B1, “Sustained-release theophylline tablet” (Nikken Chemicals Co., Ltd., priority 1997, dated 2002).

Cn1c(=O)c2[nH]cnc2n(C)c1=O [Theophylline]
biological half-life (adults): about 6 hours
concentration in the blood above which serious side effects (cardiovascular system, central nervous system) sometimes appear (background art): exceeds 20 μg/ml
